EP0055702B1, “Antithrombotic treatment” (priority 1980, dated 1982)
Values joined by “and” are separate entries in the source; they are usually repeats but may differ in a detail not shown here. Equal entries are not always repeated.

Key:
F X = target: T1, F X (Homo sapiens, UniProt P00742); test: Factor X assay, Example 4; type: biochemical; details: for F X: Control 78
T1 construct: from tissue; host or cells: human plasma
Source text: (§1) The evaluation procedure used is that described in "Human Blood Coagulation, Haemostasis and Thrombosis", edited by Rosemary Biggs, published by Blackwell Scientific Publications, Oxford, England (2nd Edition), pages 670-705, 1976. […]

Fibrinogen = target: T2, Fibrinogen (Homo sapiens, UniProt P02671+P02675+P02679); test: Fibrinogen assay, Example 4; type: biochemical; details: Control 218; for Fibrogen: solution D
T2 construct: from tissue; host or cells: human plasma
T2 sequence (P02671 20-629 limits assumed): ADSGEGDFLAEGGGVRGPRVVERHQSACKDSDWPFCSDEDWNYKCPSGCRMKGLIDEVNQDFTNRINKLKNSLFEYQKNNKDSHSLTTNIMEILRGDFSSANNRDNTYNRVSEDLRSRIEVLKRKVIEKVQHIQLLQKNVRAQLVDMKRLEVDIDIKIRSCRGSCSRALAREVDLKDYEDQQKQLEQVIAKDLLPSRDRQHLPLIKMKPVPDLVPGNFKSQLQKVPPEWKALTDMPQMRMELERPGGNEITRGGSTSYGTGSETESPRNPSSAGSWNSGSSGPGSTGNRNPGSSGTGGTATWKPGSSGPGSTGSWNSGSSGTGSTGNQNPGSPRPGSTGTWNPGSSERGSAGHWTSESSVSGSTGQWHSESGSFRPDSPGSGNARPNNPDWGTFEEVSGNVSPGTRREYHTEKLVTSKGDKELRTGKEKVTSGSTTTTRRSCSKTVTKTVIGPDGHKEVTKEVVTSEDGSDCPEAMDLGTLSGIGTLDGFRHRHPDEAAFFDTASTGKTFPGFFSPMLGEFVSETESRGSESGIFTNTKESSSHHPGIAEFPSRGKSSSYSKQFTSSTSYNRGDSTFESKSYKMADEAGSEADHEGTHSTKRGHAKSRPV
T2 sequence (P02675 31-491): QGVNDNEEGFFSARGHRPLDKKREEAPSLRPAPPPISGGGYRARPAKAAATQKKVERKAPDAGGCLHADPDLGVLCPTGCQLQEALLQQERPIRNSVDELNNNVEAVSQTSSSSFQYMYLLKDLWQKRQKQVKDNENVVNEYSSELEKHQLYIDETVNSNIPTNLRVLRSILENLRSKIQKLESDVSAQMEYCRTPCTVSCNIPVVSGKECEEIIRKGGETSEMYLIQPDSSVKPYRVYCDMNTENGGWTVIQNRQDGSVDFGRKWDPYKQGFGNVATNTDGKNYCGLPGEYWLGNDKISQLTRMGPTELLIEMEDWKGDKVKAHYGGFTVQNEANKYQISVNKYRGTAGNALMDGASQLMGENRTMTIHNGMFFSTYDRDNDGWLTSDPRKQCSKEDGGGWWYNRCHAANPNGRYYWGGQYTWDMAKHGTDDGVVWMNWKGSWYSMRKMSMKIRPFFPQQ
T2 sequence (P02679 27-453): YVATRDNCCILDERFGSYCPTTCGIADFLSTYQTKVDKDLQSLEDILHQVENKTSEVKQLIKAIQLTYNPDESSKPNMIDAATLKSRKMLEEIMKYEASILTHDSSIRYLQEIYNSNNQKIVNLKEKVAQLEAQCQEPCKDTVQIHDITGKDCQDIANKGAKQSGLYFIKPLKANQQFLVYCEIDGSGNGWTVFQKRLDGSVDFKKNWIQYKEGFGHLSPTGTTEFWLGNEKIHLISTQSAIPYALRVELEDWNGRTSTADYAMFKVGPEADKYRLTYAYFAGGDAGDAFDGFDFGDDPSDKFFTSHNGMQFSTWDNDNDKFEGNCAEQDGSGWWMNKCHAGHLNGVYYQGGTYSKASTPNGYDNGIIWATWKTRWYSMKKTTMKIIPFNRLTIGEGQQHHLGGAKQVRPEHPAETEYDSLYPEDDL
Source text: as §1

human plasma [1] = test: Blood coagulation factors by standard procedures (Biggs), human plasma; type: biochemical; details: 5 mg/ml
Experimental: The effect of U.S.P. grade sodium bisulphite on blood coagulation factors was evaluated by standard procedures (Biggs) and the results are shown in Table III below.
The effect is directly proportional to dose.

human plasma [2] = test: Partial Thromboplastin Time, Example 4; type: biochemical
Source text: as §1

rats = test: Rats fed bait containing 0.5% sodium bisulphite; type: in vivo
Source text: Five rats, each in a separate cage, were given a bait containing 0.5 percent by weight of sodium bisulphite. The bait consisted of cracked grains (wheat, corn, millet and corn meal). The amounts of bait eaten were summarized for an eleven day period.

[3] = test system: human, rabbit and rat plasma; test: PTT (partial thromboplastin time) in plasma in vitro, Example 3; type: biochemical; details: for PTT (seconds) Exp. 1 A / PTT (seconds) Exp. 2 A: active agent 0.5/ml, control
Source text: Sodium, potassium and ammonium bisulphites are found to prolong PT and PTT in a dose-related fashion.
The evaluation procedure used is that described in "Human Blood Coagulation, Haemostasis and Thrombosis", edited by Rosemary Biggs, published by Blackwell Scientific Publications, Oxford, England (2nd Edition), pages 670-705, 1976.

[4] = chemical grade sodium bisulphite 0.01 mg/ml
[5] = chemical grade sodium bisulphite 0.05 mg/ml
[6] = chemical grade sodium bisulphite 0.1 mg/ml
[7] = chemical grade sodium bisulphite 0.5 mg/ml
[8] = chemical grade sodium bisulphite 1.0 mg/ml
[9] = chemical grade sodium bisulphite 5.0 mg/ml

T1 sequence (P00742 41-488): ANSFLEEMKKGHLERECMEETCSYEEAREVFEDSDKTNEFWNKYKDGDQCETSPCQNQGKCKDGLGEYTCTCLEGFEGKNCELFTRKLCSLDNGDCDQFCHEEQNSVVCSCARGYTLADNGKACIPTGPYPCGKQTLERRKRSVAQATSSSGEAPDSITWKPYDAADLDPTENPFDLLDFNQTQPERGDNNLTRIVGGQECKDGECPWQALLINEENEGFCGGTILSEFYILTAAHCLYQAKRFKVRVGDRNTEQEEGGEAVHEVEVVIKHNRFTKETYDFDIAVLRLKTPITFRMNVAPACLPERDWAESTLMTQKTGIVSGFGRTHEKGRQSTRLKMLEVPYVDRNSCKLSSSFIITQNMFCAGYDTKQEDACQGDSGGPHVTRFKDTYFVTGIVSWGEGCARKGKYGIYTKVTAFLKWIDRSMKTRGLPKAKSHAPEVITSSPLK

Sodium bisulphite
effect on Factor X (F X; 0.5 mg per ml, human plasma): significant inhibitory effect
F X (F X; Sodium bisulphite 0.01 mg/ml, solution D): 73%
F X (F X; Sodium bisulphite 0.05 mg/ml, solution D): 68%
F X (F X; Sodium bisulphite 0.1 mg/ml, solution D): 66%
F X (F X; Sodium bisulphite 0.5 mg/ml, solution D): 31%
F X (F X; Sodium bisulphite 1.0 mg/ml, solution D): 11%
F X (F X; Sodium bisulphite 5.0 mg/ml, solution D): 3%
F X (F X; [4]): 80
F X (F X; [5]): 69
F X (F X; [6]): 66
F X (F X; [7]): 22
F X (F X; [8]): 6
F X (F X; [9]): 4
Fibrogen (Fibrinogen; Sodium bisulphite 0.01 mg/ml): 222 mg%
Fibrogen (Fibrinogen; Sodium bisulphite 0.05 mg/ml): 228 mg%
Fibrogen (Fibrinogen; Sodium bisulphite 0.1 mg/ml): 217 mg%
Fibrogen (Fibrinogen; Sodium bisulphite 0.5 mg/ml): 190 mg%
Fibrogen (Fibrinogen; Sodium bisulphite 1.0 mg/ml): 185 mg%
Fibrogen (Fibrinogen; Sodium bisulphite 5.0 mg/ml): 130 mg%
Fibrinogen (Fibrinogen; [4]): 228 mg%
Fibrinogen (Fibrinogen; [5]): 245 mg%
Fibrinogen (Fibrinogen; [6]): 218 mg%
Fibrinogen (Fibrinogen; [7]): 182 mg%
Fibrinogen (Fibrinogen; [8]): 184 mg%
Fibrinogen (Fibrinogen; [9]): 119 mg%
coagulation of human plasma (human plasma [1]): completely disrupted
PTT (human plasma [2]; Sodium bisulphite 0.01 mg/ml, solution D, Control 12.20): 12.33 s
PTT (human plasma [2]; Sodium bisulphite 0.05 mg/ml, solution D, Control 12.20): 12.43 s
PTT (human plasma [2]; Sodium bisulphite 0.1 mg/ml, solution D, Control 12.20): 12.85 s
PTT (human plasma [2]; Sodium bisulphite 0.5 mg/ml, solution D, Control 12.20): 15.43 s
PTT (human plasma [2]; Sodium bisulphite 1.0 mg/ml, solution D, Control 12.20): 22.63 s
PTT (human plasma [2]; Sodium bisulphite 5.0 mg/ml, solution D, Control 12.20): >150 s
PTT (human plasma [2]; chemical grade sodium bisulphite 0.01 mg/ml, Control 34.67): 32.80 s
PTT (human plasma [2]; chemical grade sodium bisulphite 0.05 mg/ml, Control 34.67): 33.77 s
PTT (human plasma [2]; chemical grade sodium bisulphite 0.1 mg/ml, Control 34.67): 34.40 s
PTT (human plasma [2]; chemical grade sodium bisulphite 0.5 mg/ml, Control 34.67): 44.87 s
PTT (human plasma [2]; chemical grade sodium bisulphite 1.0 mg/ml, Control 34.67): 78.46 s
PTT (human plasma [2]; chemical grade sodium bisulphite 5.0 mg/ml, Control 34.67): >150 s
death of rat (rats; 2 days, Rat 1 and Rat 4, bait with 0.5% sodium bisulphite): Died
First day blood factor PT (rats; Rat 5, bait with 0.5% sodium bisulphite): 27
First day blood factor PT, increase (rats; Rats 1, 2, 3, bait with 0.5% sodium bisulphite): 26% increase and 24% increase and 28% increase
change in PTT, first day (rats; three rats with increased PT): no apparent change
prolongation of PTT ([3]; 0.5 mg/ml, human, rabbit and rat plasma in vitro, dose-related): significantly prolong
PTT (seconds) Exp. 1 A ([3]; Test sequence A): 128.2 s
PTT (seconds) Exp. 2 A ([3]; Test sequence A): 121.9 s
PTT (seconds) Exp. 1 A ([3]; Test sequence B): 128.2 s
PTT (seconds) Exp. 2 A ([3]; Test sequence B): 162.6 s
